{"source": "patent US20160032404A1", "about": "“BIOMARKERS FOR PREDICTING RESPONSE OF DLBCL TO TREATMENT WITH A BTK INHIBITOR” (Pharmacyclics LLC, priority 2014, published 2016)", "tested_on": "TMD8-resistant cells", "assay": "CellTiter-Glo luminescent cell viability assay, TMD8-resistant versus TMD8-WT cells", "type": "cell-based", "conditions": "ABT-199 for 3 days", "data": [{"smiles": "CC1(C)CCC(CN2CCN(c3ccc(C(=O)NS(=O)(=O)c4ccc(NCC5CCOCC5)c([N+](=O)[O-])c4)c(Oc4cnc5[nH]ccc5c4)c3)CC2)=C(c2ccc(Cl)cc2)C1", "note": "[ABT-199]", "values": [{"measurement": "sensitivity to drug (effect on cell growth) compared to TMD8-WT cells", "result": "more sensitive"}]}]}
